Source: patent US20120142621A1 (priority 2010, published 2012)

What was measured:
CD14 = target: T1, CD14 (Mus musculus, UniProt P10810); test: Macrophage surface expression by antibody staining: CD14; format: cell-based; details: RAW264.7 macrophages, 10 μg/ml, 30 min
T1 construct: endogenous in cells; host or cells: RAW264.7 macrophages
T1 sequence (P10810 16-336): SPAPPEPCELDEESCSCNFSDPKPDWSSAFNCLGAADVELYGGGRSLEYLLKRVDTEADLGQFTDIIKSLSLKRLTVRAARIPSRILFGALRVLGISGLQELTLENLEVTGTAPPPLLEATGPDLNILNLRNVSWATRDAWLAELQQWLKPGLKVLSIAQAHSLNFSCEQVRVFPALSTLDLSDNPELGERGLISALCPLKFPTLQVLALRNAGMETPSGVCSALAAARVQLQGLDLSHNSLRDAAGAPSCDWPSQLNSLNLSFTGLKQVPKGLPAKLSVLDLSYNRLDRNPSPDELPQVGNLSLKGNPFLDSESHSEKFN
Protocol: (§1) Effects of Glyco 23 on TLR pathway: We studied expression of macrophage CD14 and TLR4 in an in vitro model system using cultured macrophages to relate Glyco 23 mechanism of action to events upstream of cytokine gene expression. […] This observation is significant in light of very recent studies showing that CD14 inhibition using anti-CD14 antibodies in an in vivo pig model of gram-negative sepsis and endotoxemia.^(42)
(§2) Macrophages (RAW264.7) were incubated in the absence or presence of sophorolipids (SL, 10 μg/ml, 30 min, room temperature), washed with phosphate-buffered saline (PBS), and anti-CD 14 or anti-TLR4 antibodies (Santa Cruz Biotechnology, 10 μg/ml, 30 min, room temperature). The cells were then washed with PBS and staining was performed using ABC staining system (Santa Cruz Biotechnology), according to manufacturer's instructions. The cells were then fixed with 1% formaldehyde and examined microscopically. A total of 200 cells were scored in triplicate for each determination, and results expressed as % of total cells counted.

[1] = system: galactosamine-sensitized LPS endotoxic shock; test: Galactosamine-sensitized LPS endotoxic shock mortality; format: in vivo, mouse
From the text: Therefore, treatment after 2 hr can be compared to treatment after 24 hrs or later in conventional models.

IL-1 = test: Cytokine responses in vitro: IL-1; format: cell-based; details: compared with the natural mixture responses, FIG. 5
[2] = Dosage finding after CLP, tail vein IV; format: in vivo; details: 24 mg/kg IV in 50% ethanol-PBS; possibly due to ethanol concentration
Protocol: Dosage To determine the optimum dose that can be administered to the rats, 3 different doses of Glyco 23, 6 mg/kg, 12 mg/kg and 24 mg/kg of rat body weight (in 50% ethanol-PBS) was administered using tail vein IV to 9 rats following the Cecal Ligation and Puncture (CLP). Control rats (n=3) were injected with 0.5 ml of PBS. […] Rats that received […] and 12 mg/kg doses survived after 24 hours. Blood was obtained before they were sacrificed the next day.

[3] = system: septic peritonitis via CLP; test: CLP model of intra-abdominal sepsis: survival / mortality; format: in vivo, rat; details: same CLP model, FIG. 4
Protocol: Effect of Glyco 23 on mortality in intra-abdominal sepsis. […] The CLP model was chosen for its reproducible mortality rates and its ability to mimic fecal peritonitis.
This dose is well below the LD50 (6-7 gm/kg) of naturally occurring sophorolipids in rodents.^(40,41). Doses were given at the end of the surgery, and animals were followed for 36 hours. Kaplan Meier statistics were performed on survival.

IL-1β = test: RNase Protection Assay, splenocyte mRNA of CLP-septic rats: IL-1β; format: in vivo, rat; details: 5 mg/kg; splenocytes at 6 hrs; percent control (CLP+vehicle) +/- SEM; P<0.05
From the text: (§3) Data are expressed as percent control (CLP+vehicle)+/−SEM. Treatment groups were significant (p<0.05) compared with control using student's T test. CLP=cecal ligation and puncture; SL=sophorolipid

TLR4 = target: T2, TLR4 (Mus musculus, UniProt Q9QUK6); test: Macrophage surface expression by antibody staining: TLR4; format: cell-based; details: RAW264.7 macrophages, 10 μg/ml, 30 min
T2 construct: endogenous in cells; host or cells: RAW264.7 macrophages
T2 sequence (Q9QUK6 26-835): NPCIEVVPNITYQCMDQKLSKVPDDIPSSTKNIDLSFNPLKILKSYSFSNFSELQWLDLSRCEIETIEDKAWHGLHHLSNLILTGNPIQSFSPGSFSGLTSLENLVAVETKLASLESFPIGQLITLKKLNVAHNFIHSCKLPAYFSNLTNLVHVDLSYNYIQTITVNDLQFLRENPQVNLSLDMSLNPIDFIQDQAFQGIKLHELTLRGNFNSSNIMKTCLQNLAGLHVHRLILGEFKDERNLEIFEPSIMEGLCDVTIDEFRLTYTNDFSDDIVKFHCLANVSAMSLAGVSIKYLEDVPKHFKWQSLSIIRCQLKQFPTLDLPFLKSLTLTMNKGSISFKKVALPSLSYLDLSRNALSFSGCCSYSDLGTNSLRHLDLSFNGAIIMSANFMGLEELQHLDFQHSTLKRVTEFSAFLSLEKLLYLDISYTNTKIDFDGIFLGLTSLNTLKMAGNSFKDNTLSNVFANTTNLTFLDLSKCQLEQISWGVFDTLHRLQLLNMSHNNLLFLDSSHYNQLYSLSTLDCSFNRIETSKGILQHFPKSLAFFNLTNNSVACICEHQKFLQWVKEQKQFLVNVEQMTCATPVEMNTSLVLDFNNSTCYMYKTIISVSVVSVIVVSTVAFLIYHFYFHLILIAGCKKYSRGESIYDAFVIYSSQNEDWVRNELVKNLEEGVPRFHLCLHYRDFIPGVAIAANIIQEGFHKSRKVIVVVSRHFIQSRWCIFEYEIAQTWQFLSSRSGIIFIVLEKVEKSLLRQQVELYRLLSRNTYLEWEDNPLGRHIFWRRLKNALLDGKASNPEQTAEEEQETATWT
Protocol: as §1, §2

[4] = system: LPS-induced immunologically relevant genes in mouse macrophages; test: Microarray analysis of macrophages cultured with LPS +/- Glyco 23; format: cell-based; details: Affymetrix Murine Genome Array U74Av2; LPS maximum set as 100%
Protocol: The maximum level of each gene expression attained in the presence of LPS was set as 100%. […] The analysis was performed using the Affymetrix GeneChip® Murine Genome Array U74Av2 probe array.

TGF-β1 = test: RNase Protection Assay, splenocyte mRNA of CLP-septic rats: TGF-β1; format: in vivo, rat; details: splenocytes at 6 hrs; percent control (CLP+vehicle) +/- SEM; P<0.05
From the text: as §3

[5] = system: standard bacterial isolates; test: Antibiotic activity, broth microdilution method; format: cell-based; details: clinically relevant concentrations
IL-8 = test: Cytokine responses in vitro: IL-8; format: cell-based; details: compared with the natural mixture responses, FIG. 5
[6] = system: septic peritonitis via CLP; test: Survival, WBC and blood culture at 3 hours and 24 hours post insult (CLP); format: in vivo, rat; details: 5 mg/kg IV at end of surgery, n=6/group; for Survival 24 Hs. post insult: % printed only over the 3 hours column
Protocol: Survival at 3 hours and 24 hours post insult. […] Doses were given at the end of the surgery, and animals were followed for 24 hours (Table 1)

Interleukin-6 (IL-6) = test: Serum IL-6 by ELISA 3 hrs after CLP; format: in vivo, rat; details: natural mixture versus free acid form, FIG. 10
Protocol: Serum samples were obtained from rats (N=5 animals/group) 3 hrs. after (CLP) to establish polymicrobial sepsis, and intravenous injection of saline (control), sophorolipids-natural mixture (SL) or Glyco 23. Serum concentrations of Interleukin-6 (IL-6) were determined using commercial ELISA tests according to manufacturer's instructions. Results were evaluated for statistical significance using ANOVA.

| Molecule | surface expression of CD14 (CD14) | Mortality (%) ([1]; LPS at 0 hs, Glyco at 0 hs, n = 9) | Mortality (%) ([1]; LPS at 0 hs, Glyco at 1.5 hs, n = 10) | Mortality (%) ([1]; LPS at 1.5 hs, Glyco at 0 hs, n = 10) | decrease of endotoxin mortality ([1]; administered 2 hr after insult, versus positive control mice) [%] | IL-1 cytokine response suppression (IL-1) | time to death of all rats [2] [h] | Mortality rate reduced compared to vehicle [3] [%] | reduction in IL-1β expression (mRNA) (IL-1β) | surface expression of TLR4 (TLR4) | expression of genes upregulated more than 5 fold by LPS [4] | increased expression of TGF-β1 (mRNA) (TGF-β1) [%] | antibiotic activity [5] | IL-8 cytokine response suppression (IL-8) | Survival % 3 hours post insult [6] [%] | Survival 24 Hs. post insult [6] [%] | difference between the inhibitory effects on serum IL-6 (Interleukin-6 (IL-6)) |
| --- | --- | --- | --- | --- | --- | --- | --- | --- | --- | --- | --- | --- | --- | --- | --- | --- | --- |
| CCOC(=O)CCCCCCC/C=C\CCCCCCC(C)OC1O[C@H](CO)[C@@H](O)[C@H](O)[C@H]1OC1O[C@H](CO)[C@@H](O)[C@H](O)[C@H]1O (relative stereo) [Glyco 23, Ethyl-17-L-[(2′-O-D-glucopyranosyl-D-glucopyranosyl)-oxy]-cis-9-octadecenoate] | interferes with surface expression | 89 | 30 | 80 | 56 | decreased | ≤ 2 | 37 | 42.5%±4.7% | interferes with surface expression | suppressed | 11.7±1.5 | no significant antibiotic activity | decreased | 100 | 100 | – |
| Lipid A [reference compound] | – | – | – | – | – | – | – | – | – | – | – | – | – | – | 50 | 32 | – |
| CC(CCCCCC/C=C\CCCCCCCC(=O)O)O[C@@H]1O[C@H](CO)[C@@H](O)[C@H](O)[C@H]1O[C@@H]1O[C@H](CO)[C@@H](O)[C@H](O)[C@H]1O (relative stereo) [Sohorolipid Free Acid derivative, 17-L-[(2′-O-b-D-glucopyranosyl-b-D-glucopyranosyl)-oxy]-cis-9-octadecenoatede-acetylated free acid] | – | – | – | – | – | – | – | – | – | – | – | – | – | – | 100 | 90 | No significant difference |
